Data reported in the supplement of paper PMC10627819.

Columns and labels:
B. subtilis 168 [1] = test: Bliss interaction score (quartile over a dose matrix) (fitness difference); higher = more antagonism (negative = synergy)
Method in brief: (§1)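 Quartiles summarise the Bliss score over technical, biological and donor/recipient replicates, where the score is observed minus expected fitness under a product model. Expected fitness uses single-drug values inferred from combination data. Fitness is OD595 at entry into stationary phase over the plate's robust no-drug mean, capped at 1.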

S. aureus DSM 20231 [2] = test: as above
Method in brief: as §1

S. aureus Newman [3] = test: as above
Method in brief: as §1

S. pneumoniae D39V [4] = test: as above
Method in brief: as §1

B. subtilis 168 [5] = test: fitness (endpoint OD595 vs no drug) (fraction); higher = more growth
Method in brief: (§2)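 Fitness compares growth at the stationary-phase transition with the robust mean of no-drug control wells, as a ratio of optical densities. The ratio is capped at 1. Wells of 384-well plates held 30 µl, or 55 µl for S. pneumoniae, inoculated at OD595 0.01. Readings at OD595 every 30 min for 14 h at 37 °C were corrected against the first reading.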

S. aureus DSM 20231 [6] = test: as above
Method in brief: as §2

S. aureus Newman [7] = test: as above
Method in brief: as §2

S. pneumoniae D39V [8] = test: as above
Method in brief: as §2
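For Bliss interaction score (quartile over a dose matrix) in this document: first quartile when negative (synergy) and third quartile when positive (antagonism).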

Cn1c2cccc(=O)c-2nc2ccccc21 [Pyocyanin] + CC1=C\[C@@H](O)CC(=O)Cc2nc(co2)C(=O)N2CCC=C2C(=O)O[C@H](C(C)C)[C@H](C)/C=C/C(=O)NC\C=C\1 [Virginiamycin M1]
Details | Bliss interaction score
B. subtilis 168 [1] | -0.0635
S. aureus DSM 20231 [2] | -0.0636
S. aureus Newman [3] | 0.0515
S. pneumoniae D39V [4] | 0.0505

fitness
Details | B. subtilis 168 [5] | S. aureus DSM 20231 [6] | S. aureus Newman [7] | S. pneumoniae D39V [8]
first compound 0.325 µg/mL, partner 0.5 µg/mL | – | – | – | ≥ 1
first compound 0.325 µg/mL, partner 1 µg/mL | – | – | – | ≥ 1
first compound 0.325 µg/mL, partner 2 µg/mL | – | – | – | 0.969
first compound 0.65 µg/mL, partner 0.5 µg/mL | – | – | – | ≥ 1
first compound 0.65 µg/mL, partner 1 µg/mL | – | – | – | ≥ 1
first compound 0.65 µg/mL, partner 2 µg/mL | – | – | – | 0.992
first compound 1.25 µg/mL, partner 0.0625 µg/mL | 0.924 | 0.883 | 0.823 | –
first compound 1.25 µg/mL, partner 0.125 µg/mL | 0.89 | 0.923 | 0.833 | –
first compound 1.25 µg/mL, partner 0.25 µg/mL | 0.885 | 0.808 | 0.823 | –
first compound 1.3 µg/mL, partner 2 µg/mL | – | – | – | 0.828
first compound 2.5 µg/mL, partner 0.0625 µg/mL | 0.862 | 0.854 | 0.752 | –
first compound 2.5 µg/mL, partner 0.125 µg/mL | 0.84 | 0.86 | 0.766 | –
first compound 2.5 µg/mL, partner 0.25 µg/mL | 0.857 | 0.89 | 0.776 | –
first compound 5 µg/mL, partner 0.0625 µg/mL | 0.734 | 0.562 | 0.369 | –
first compound 5 µg/mL, partner 0.125 µg/mL | 0.741 | 0.589 | 0.422 | –
first compound 5 µg/mL, partner 0.25 µg/mL | 0.758 | 0.621 | 0.352 | –

fitness, one replicate
Details | partner 0.15 µg/mL | partner 0.3 µg/mL | partner 0.5 µg/mL | partner 1 µg/mL | partner 2 µg/mL
S. aureus DSM 20231 [6], first compound 1.25 µg/mL | – | – | 0.913 | 0.882 | –
S. aureus DSM 20231 [6], first compound 2.5 µg/mL | – | – | 0.816 | 0.787 | –
S. aureus DSM 20231 [6], first compound 5 µg/mL | – | – | 0.556 | 0.616 | –
S. aureus Newman [7], first compound 1.25 µg/mL | – | – | 0.921 | ≥ 1 | 0.92
S. aureus Newman [7], first compound 2.5 µg/mL | – | – | 0.939 | 0.965 | 0.952
S. aureus Newman [7], first compound 5 µg/mL | – | – | 0.844 | 0.885 | 0.734
S. pneumoniae D39V [8], first compound 0.325 µg/mL | ≥ 1 | 0.988 | – | – | –
S. pneumoniae D39V [8], first compound 0.65 µg/mL | ≥ 1 | 0.994 | – | – | –
S. pneumoniae D39V [8], first compound 1.3 µg/mL | 0.935 | 0.859 | 0.878 | 0.815 | –

CN(N=O)C(=O)N[C@@H](C=O)[C@@H](O)[C@H](O)[C@H](O)CO [Streptozotocin] + CC1=C\[C@@H](O)CC(=O)Cc2nc(co2)C(=O)N2CCC=C2C(=O)O[C@H](C(C)C)[C@H](C)/C=C/C(=O)NC\C=C\1 [Virginiamycin M1]
Details | Bliss interaction score
B. subtilis 168 [1] | 0.0477
S. aureus DSM 20231 [2] | -0.0415
S. aureus Newman [3] | 0.0262
S. pneumoniae D39V [4] | -0.0403

fitness, one replicate
Details | first compound 0.15 µg/mL | first compound 0.3 µg/mL | first compound 0.6 µg/mL | first compound 1.2 µg/mL | first compound 2.4 µg/mL | first compound 4.8 µg/mL
B. subtilis 168 [5], partner 0.0625 µg/mL | ≥ 1 | 0.975 | 0.991 | – | – | –
B. subtilis 168 [5], partner 0.125 µg/mL | 0.949 | 0.92 | 0.944 | – | – | –
B. subtilis 168 [5], partner 0.25 µg/mL | ≥ 1 | ≥ 1 | 0.958 | – | – | –
S. aureus DSM 20231 [6], partner 0.5 µg/mL | 0.616 | 0.686 | 0.581 | – | – | –
S. aureus DSM 20231 [6], partner 1 µg/mL | 0.61 | 0.69 | 0.667 | – | – | –
S. aureus Newman [7], partner 0.0625 µg/mL | 0.843 | 0.677 | 0.491 | – | – | –
S. aureus Newman [7], partner 0.125 µg/mL | 0.831 | 0.682 | 0.504 | – | – | –
S. aureus Newman [7], partner 0.25 µg/mL | 0.822 | 0.661 | 0.53 | – | – | –
S. aureus Newman [7], partner 0.5 µg/mL | 0.77 | 0.639 | 0.55 | – | – | –
S. aureus Newman [7], partner 1 µg/mL | 0.765 | 0.672 | 0.517 | – | – | –
S. aureus Newman [7], partner 2 µg/mL | 0.748 | 0.629 | 0.477 | – | – | –
S. pneumoniae D39V [8], partner 0.15 µg/mL | – | – | – | 0.913 | 0.94 | 0.88
S. pneumoniae D39V [8], partner 0.3 µg/mL | – | – | – | 0.848 | 0.93 | 0.925

fitness
Details | first compound 0.15 µg/mL | first compound 0.3 µg/mL | first compound 0.6 µg/mL | first compound 1.2 µg/mL | first compound 2.4 µg/mL | first compound 4.8 µg/mL
S. aureus DSM 20231 [6], partner 0.0625 µg/mL | 0.844 | 0.791 | 0.66 | – | – | –
S. aureus DSM 20231 [6], partner 0.125 µg/mL | 0.88 | 0.83 | 0.714 | – | – | –
S. aureus DSM 20231 [6], partner 0.25 µg/mL | 0.861 | 0.753 | 0.681 | – | – | –
S. pneumoniae D39V [8], partner 0.5 µg/mL | – | – | – | 0.985 | 0.99 | 0.981
S. pneumoniae D39V [8], partner 1 µg/mL | – | – | – | 0.944 | 0.966 | 0.968
S. pneumoniae D39V [8], partner 2 µg/mL | – | – | – | 0.935 | 0.939 | 0.911

Cc1onc(-c2ccccc2)c1C(=O)N[C@@H]1C(=O)N2[C@@H]1SC(C)(C)[C@@H]2C(=O)O [Oxacillin] + CN[C@@H]1[C@H](O)[C@H](NC)[C@H]2O[C@@]3(O)C(=O)C[C@@H](C)O[C@H]3O[C@@H]2[C@H]1O [Spectinomycin]
Details | Bliss interaction score
B. subtilis 168 [1] | 0.0285
S. aureus DSM 20231 [2] | -0.0526
S. aureus Newman [3] | -0.0743
S. pneumoniae D39V [4] | 0.0929

fitness
Details | partner 2 µg/mL | partner 4 µg/mL | partner 8 µg/mL | partner 16 µg/mL
B. subtilis 168 [5], first compound 0.002 µg/mL | 0.966 | 0.984 | 0.899 | –
B. subtilis 168 [5], first compound 0.004 µg/mL | ≥ 1 | ≥ 1 | 0.874 | –
B. subtilis 168 [5], first compound 0.008 µg/mL | 0.982 | 0.993 | 0.87 | –
S. aureus DSM 20231 [6], first compound 0.0156 µg/mL | – | 0.779 | 0.802 | 0.764
S. aureus DSM 20231 [6], first compound 0.0312 µg/mL | – | 0.681 | 0.684 | 0.665
S. aureus DSM 20231 [6], first compound 0.0625 µg/mL | – | 0.482 | 0.497 | 0.489
S. aureus Newman [7], first compound 0.0156 µg/mL | – | 0.757 | 0.751 | 0.766
S. aureus Newman [7], first compound 0.0312 µg/mL | – | 0.688 | 0.672 | 0.586
S. aureus Newman [7], first compound 0.0625 µg/mL | – | 0.596 | 0.555 | 0.528
S. pneumoniae D39V [8], first compound 0.01 µg/mL | – | 0.94 | 0.93 | 0.819
S. pneumoniae D39V [8], first compound 0.02 µg/mL | – | 0.884 | 0.889 | 0.788
S. pneumoniae D39V [8], first compound 0.04 µg/mL | – | 0.373 | 0.455 | 0.415

fitness, one replicate
Details | first compound 0.0156 µg/mL | first compound 0.0312 µg/mL | first compound 0.0625 µg/mL | first compound 0.075 µg/mL | first compound 0.15 µg/mL | first compound 0.3 µg/mL
B. subtilis 168 [5], partner 2 µg/mL | – | – | – | 0.467 | 0.0332 | 0.0357
B. subtilis 168 [5], partner 4 µg/mL | – | – | – | 0.394 | 0.034 | 0.0431
B. subtilis 168 [5], partner 8 µg/mL | – | – | – | 0.0241 | 0.0342 | 0.0299
S. aureus DSM 20231 [6], partner 32 µg/mL | 0.601 | 0.628 | 0.509 | – | – | –
S. aureus DSM 20231 [6], partner 64 µg/mL | 0.0615 | 0.0592 | 0.0362 | – | – | –
S. aureus Newman [7], partner 32 µg/mL | 0.483 | 0.272 | 0.135 | – | – | –
S. aureus Newman [7], partner 64 µg/mL | 0.0551 | 0.0867 | 0.0035 | – | – | –
